≈ marks a conversion by molar mass, not a printed value. Where “and” joins values, the source holds several entries; their conditions need not be identical. Identical values can stand only once.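 Briefly, cells in 96-well plates were exposed to five compound concentrations for 48 h, and endpoints were estimated by linear interpolation. At the GI50, growth is halved. TGI marks complete inhibition of growth.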
What was measured:
Assay in all cases: NCI anticancer screen, dose series, 48 h
K-562 leukemia = tested on: K-562 leukemia
NCI-H226 lung = tested on: NCI-H226 lung
HCT-116 colon = tested on: HCT-116 colon
LOX IMVI melanoma = tested on: LOX IMVI melanoma
SR leukemia = tested on: SR leukemia
NCI-H460 lung = tested on: NCI-H460 lung
PC-3 prostate = tested on: PC-3 prostate
U251 CNS = tested on: U251 CNS
EKVX NSCLC = tested on: EKVX NSCLC
SK-OV-3 ovarian = tested on: SK-OV-3 ovarian
BT-549 breast = tested on: BT-549 breast
HCC-2998 colon = tested on: HCC-2998 colon
CAKI-1 renal = tested on: CAKI-1 renal
IGROV1 ovarian = tested on: IGROV1 ovarian
SK-MEL-5 melanoma = tested on: SK-MEL-5 melanoma
UACC-257 melanoma = tested on: UACC-257 melanoma
COLO 205 colon = tested on: COLO 205 colon
TK-10 renal = tested on: TK-10 renal
SF-268 CNS = tested on: SF-268 CNS
UO-31 renal = tested on: UO-31 renal
A498 renal = tested on: A498 renal
KM12 colon = tested on: KM12 colon
HL-60(TB) leukemia = tested on: HL-60(TB) leukemia
CCRF-CEM leukemia = tested on: CCRF-CEM leukemia
SF-295 CNS = tested on: SF-295 CNS
DU-145 prostate = tested on: DU-145 prostate
786-0 renal = tested on: 786-0 renal
UACC-62 melanoma = tested on: UACC-62 melanoma
M14 melanoma = tested on: M14 melanoma
SK-MEL-28 melanoma = tested on: SK-MEL-28 melanoma
NCI-H522 lung = tested on: NCI-H522 lung
MOLT-4 leukemia = tested on: MOLT-4 leukemia
A549 NSCLC = tested on: A549 NSCLC
HOP-92 NSCLC = tested on: HOP-92 NSCLC
RPMI-8226 leukemia = tested on: RPMI-8226 leukemia
NCI-H23 lung = tested on: NCI-H23 lung
MDA-MB-435 = tested on: MDA-MB-435
RXF 393 renal = tested on: RXF 393 renal
OVCAR-5 ovarian = tested on: OVCAR-5 ovarian
HT29 colon = tested on: HT29 colon
MCF7 breast = tested on: MCF7 breast
OVCAR-3 ovarian = tested on: OVCAR-3 ovarian
SN12C renal = tested on: SN12C renal
NCI/ADR-RES ovarian = tested on: NCI/ADR-RES ovarian
MALME-3M melanoma = tested on: MALME-3M melanoma
OVCAR-8 ovarian = tested on: OVCAR-8 ovarian
HCT-15 colon = tested on: HCT-15 colon
ACHN renal = tested on: ACHN renal
SW-620 colon = tested on: SW-620 colon
HS 578T breast = tested on: HS 578T breast
SNB-19 CNS = tested on: SNB-19 CNS
T-47D breast = tested on: T-47D breast
SK-MEL-2 melanoma = tested on: SK-MEL-2 melanoma
OVCAR-4 ovarian = tested on: OVCAR-4 ovarian
SNB-75 CNS = tested on: SNB-75 CNS
MDA-MB-231 breast = tested on: MDA-MB-231 breast
HOP-62 NSCLC = tested on: HOP-62 NSCLC

With `O=C(Nc1cccc(-n2ccc3c(NC(=O)c4ccccc4)nccc32)c1)c1ccc(Cl)c(C(F)(F)F)c1` the TGI (K-562 leukemia) was 6.77 µM and 50.9 µM, the TGI (NCI-H226 lung) was 10.2 µM and > 100 µM and the GI50 (HCT-116 colon) was 0.136 µM and 0.513 µM. For the same compound, the GI50 (LOX IMVI melanoma) was 0.163 µM and 0.612 µM, the TGI (SR leukemia) was 6.71 µM and 15.7 µM and the GI50 (NCI-H460 lung) was 0.116 µM and 0.481 µM. The GI50 (PC-3 prostate) was 0.143 µM and 0.95 µM, the GI50 (U251 CNS) was 0.125 µM and 0.759 µM and the TGI (EKVX NSCLC) was 17.1 µM and > 100 µM.
`CC(=O)N1N=C(c2ccc(C)cc2)CC1c1cn(-c2ccccc2)nc1-c1cccc(Nc2ccnc3cc(Cl)ccc23)c1` (centres undefined) was tested, and the GI50 (NCI-H226 lung) was > 100 µM, the TGI (NCI-H226 lung) was > 100 µM and the GI50 (SK-OV-3 ovarian) was > 100 µM. The TGI (SK-OV-3 ovarian) was > 100 µM, the GI50 (BT-549 breast) was > 100 µM and the TGI (BT-549 breast) was > 100 µM. For the same compound, the GI50 (HCC-2998 colon) was > 100 µM, the TGI (HCC-2998 colon) was > 100 µM and the GI50 (CAKI-1 renal) was > 100 µM. The TGI (CAKI-1 renal) was > 100 µM, the GI50 (IGROV1 ovarian) was > 100 µM and the TGI (IGROV1 ovarian) was > 100 µM. For the same compound, the GI50 (SK-MEL-5 melanoma) was > 100 µM, the TGI (SK-MEL-5 melanoma) was > 100 µM and the GI50 (UACC-257 melanoma) was > 100 µM. The TGI (UACC-257 melanoma) was > 100 µM, the GI50 (COLO 205 colon) was > 100 µM and the TGI (COLO 205 colon) was > 100 µM. The GI50 (TK-10 renal) was > 100 µM, the TGI (TK-10 renal) was > 100 µM and the GI50 (SF-268 CNS) was > 100 µM. The TGI (SF-268 CNS) was > 100 µM, the GI50 (PC-3 prostate) was > 100 µM and the TGI (PC-3 prostate) was > 100 µM. For the same compound, the GI50 (UO-31 renal) was > 100 µM, the TGI (UO-31 renal) was > 100 µM and the GI50 (A498 renal) was > 100 µM. For the same compound, the TGI (A498 renal) was > 100 µM, the GI50 (KM12 colon) was > 100 µM and the TGI (KM12 colon) was > 100 µM.
With `COCCCC(NC(=O)C(CC(C)C)NC(=O)OCc1ccc(OC)cc1)C(=O)OC` (centres undefined) the GI50 (HL-60(TB) leukemia) was 26.9 µg/mL (≈ 61.3 µM), the TGI (HL-60(TB) leukemia) was 57.5 µg/mL and the GI50 (K-562 leukemia) was 36 µg/mL (≈ 82.1 µM). The TGI (K-562 leukemia) was 81.5 µg/mL, the GI50 (CCRF-CEM leukemia) was 42.1 µg/mL (≈ 95.9 µM) and the TGI (CCRF-CEM leukemia) was 87.1 µg/mL. For the same compound, the GI50 (LOX IMVI melanoma) was 96.4 µg/mL, the GI50 (SK-OV-3 ovarian) was 71.6 µg/mL and the GI50 (SF-295 CNS) was 83.3 µg/mL (≈ 190 µM). For the same compound, the GI50 (DU-145 prostate) was 77.6 µg/mL (≈ 177 µM), the GI50 (786-0 renal) was 80.6 µg/mL (≈ 184 µM) and the GI50 (HCC-2998 colon) was 32.5 µg/mL. The TGI (HCC-2998 colon) was 75.1 µg/mL, the GI50 (SR leukemia) was 18.8 µg/mL (≈ 42.8 µM) and the TGI (SR leukemia) was 42.5 µg/mL. The GI50 (UACC-62 melanoma) was 71.3 µg/mL (≈ 163 µM), the GI50 (M14 melanoma) was 50.5 µg/mL (≈ 115 µM) and the TGI (M14 melanoma) was 85.3 µg/mL. It also gave a GI50 (SK-MEL-28 melanoma) of 47.1 µg/mL (≈ 107 µM), a TGI (SK-MEL-28 melanoma) of 76.6 µg/mL (≈ 175 µM) and a GI50 (NCI-H460 lung) of 23 µg/mL. The TGI (NCI-H460 lung) was 46.2 µg/mL, the GI50 (NCI-H522 lung) was 59.8 µg/mL (≈ 136 µM) and the GI50 (MOLT-4 leukemia) was 39.4 µg/mL (≈ 89.9 µM). The TGI (MOLT-4 leukemia) was 60.1 µg/mL, the GI50 (A549 NSCLC) was 61.1 µg/mL (≈ 139 µM) and the GI50 (HOP-92 NSCLC) was 40.8 µg/mL (≈ 93 µM). The TGI (HOP-92 NSCLC) was 65.4 µg/mL, the GI50 (RPMI-8226 leukemia) was 27 µg/mL (≈ 61.6 µM) and the TGI (RPMI-8226 leukemia) was 70 µg/mL.
`OCC1OC(n2cnc3c(Cl)nc(Nc4ccc(Cl)c(Cl)c4)nc32)CC1O` (centres undefined) gave a TGI (HL-60(TB) leukemia) of 16.4 µM, a TGI (NCI-H23 lung) of 22.6 µM and a TGI (MDA-MB-435) of 22.3 µM. For the same compound, the TGI (RXF 393 renal) was 19.5 µM, the TGI (K-562 leukemia) was 49.4 µM and the TGI (CCRF-CEM leukemia) was 18.1 µM. For the same compound, the TGI (NCI-H226 lung) was 20.2 µM, the TGI (HCT-116 colon) was 28.9 µM and the TGI (OVCAR-5 ovarian) was > 50 µM. For the same compound, the TGI (LOX IMVI melanoma) was 16 µM, the TGI (HT29 colon) was 15.2 µM and the TGI (MCF7 breast) was 27.5 µM. It also gave a TGI (SK-OV-3 ovarian) of 33.4 µM, a TGI (OVCAR-3 ovarian) of 46.1 µM and a TGI (SF-295 CNS) of 19.3 µM. It also gave a TGI (BT-549 breast) of 22.3 µM, a TGI (SN12C renal) of 23.4 µM and a TGI (NCI/ADR-RES ovarian) of 25.3 µM. The TGI (MALME-3M melanoma) was 21.2 µM, the TGI (DU-145 prostate) was 48.6 µM and the TGI (OVCAR-8 ovarian) was 22.6 µM. The TGI (HCT-15 colon) was 21.7 µM, the TGI (786-0 renal) was 19.4 µM and the TGI (ACHN renal) was 19.9 µM. For the same compound, the TGI (HCC-2998 colon) was 17.1 µM, the TGI (SW-620 colon) was 27.5 µM and the TGI (CAKI-1 renal) was 33.7 µM. The TGI (HS 578T breast) was 32.3 µM, the TGI (UACC-62 melanoma) was 17.2 µM and the TGI (SNB-19 CNS) was > 50 µM. For the same compound, the TGI (IGROV1 ovarian) was 27.8 µM, the TGI (M14 melanoma) was 32 µM and the TGI (SK-MEL-5 melanoma) was 16.9 µM. For the same compound, the TGI (NCI-H460 lung) was 16.8 µM, the TGI (NCI-H522 lung) was 18.1 µM and the TGI (UACC-257 melanoma) was 20 µM. The TGI (COLO 205 colon) was 20.5 µM, the TGI (MOLT-4 leukemia) was 12.5 µM and the TGI (T-47D breast) was > 50 µM. The TGI (TK-10 renal) was 35.6 µM, the TGI (SK-MEL-2 melanoma) was 19.2 µM and the TGI (A549 NSCLC) was > 50 µM. The TGI (OVCAR-4 ovarian) was 41.8 µM, the TGI (SNB-75 CNS) was 42.2 µM and the TGI (SF-268 CNS) was 28.6 µM. It also gave a TGI (PC-3 prostate) of 37.1 µM, a TGI (HOP-92 NSCLC) of 16.3 µM and a TGI (MDA-MB-231 breast) of 23.5 µM. The TGI (UO-31 renal) was 31.4 µM, the TGI (HOP-62 NSCLC) was 23 µM and the TGI (U251 CNS) was 23.8 µM. For the same compound, the TGI (A498 renal) was 18.9 µM, the TGI (KM12 colon) was 17.7 µM and the TGI (RPMI-8226 leukemia) was 29.4 µM. It also gave a TGI (EKVX NSCLC) of 28.2 µM.

Source: PubChem BioAssay (NCI)
